Test results: ChEMBL document CHEMBL1201862, “PubChem BioAssay data set” (2004)
The source made the active and inactive calls.

What was measured:
[1] = alpha-synuclein stem-loop translation blockers – luminescence, H4 neuroglioblastoma cells, dose confirmation, confirmation (AID 2454); type: functional, cell-based;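 also: H4 neuroglioblastoma cells carrying an alpha-synuclein 5'UTR luciferase reporter; potency for inhibition of the luciferase signal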
[2] = luciferase reporter signal suppression in cells – H4 neuroglioma cells, luminescence, dose response (AID 1990); type: functional, cell-based
[3] = Luminescence Cell-Based Dose Response HTS to Identify Inhibitors of 5'UTR Stem-Loop Driven Prion Protein mRNA Translation in H4 Neuroglioblastoma Cells. [Related pubchem assays: 1827 (Project Summary), 1813 (Primary HTS)]; type: functional
[4] = luciferase reporter signal reduction – luminescence, H4-C neuroglioblastoma cells, dose response (AID 2458); type: functional, cell-based;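 also: H4 neuroglioblastoma cells stably carrying a luciferase reporter gene fusion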
cells = type: functional, cell-based
[5] = alpha-synuclein stem-loop luciferase translation blockers – H4 neuroglioma cells, luminescence, confirmation (AID 1988); type: functional, cell-based
[6] = molecular target: Eukaryotic translation initiation factor 4H (Homo sapiens, UniProt Q15056); experiment: inhibitors of translation initiation factor eIF4H – SAR follow-up (AID 435011); type: functional
Hexokinase HKDC1 = molecular target: T1, Hexokinase HKDC1 (Homo sapiens, UniProt Q2TB90); experiment: inhibition of HKDC1 glucose phosphorylation – biochemical, W721R variant, dose response (AID 504729); type: functional
T1 sequence (Q2TB90 whole entry): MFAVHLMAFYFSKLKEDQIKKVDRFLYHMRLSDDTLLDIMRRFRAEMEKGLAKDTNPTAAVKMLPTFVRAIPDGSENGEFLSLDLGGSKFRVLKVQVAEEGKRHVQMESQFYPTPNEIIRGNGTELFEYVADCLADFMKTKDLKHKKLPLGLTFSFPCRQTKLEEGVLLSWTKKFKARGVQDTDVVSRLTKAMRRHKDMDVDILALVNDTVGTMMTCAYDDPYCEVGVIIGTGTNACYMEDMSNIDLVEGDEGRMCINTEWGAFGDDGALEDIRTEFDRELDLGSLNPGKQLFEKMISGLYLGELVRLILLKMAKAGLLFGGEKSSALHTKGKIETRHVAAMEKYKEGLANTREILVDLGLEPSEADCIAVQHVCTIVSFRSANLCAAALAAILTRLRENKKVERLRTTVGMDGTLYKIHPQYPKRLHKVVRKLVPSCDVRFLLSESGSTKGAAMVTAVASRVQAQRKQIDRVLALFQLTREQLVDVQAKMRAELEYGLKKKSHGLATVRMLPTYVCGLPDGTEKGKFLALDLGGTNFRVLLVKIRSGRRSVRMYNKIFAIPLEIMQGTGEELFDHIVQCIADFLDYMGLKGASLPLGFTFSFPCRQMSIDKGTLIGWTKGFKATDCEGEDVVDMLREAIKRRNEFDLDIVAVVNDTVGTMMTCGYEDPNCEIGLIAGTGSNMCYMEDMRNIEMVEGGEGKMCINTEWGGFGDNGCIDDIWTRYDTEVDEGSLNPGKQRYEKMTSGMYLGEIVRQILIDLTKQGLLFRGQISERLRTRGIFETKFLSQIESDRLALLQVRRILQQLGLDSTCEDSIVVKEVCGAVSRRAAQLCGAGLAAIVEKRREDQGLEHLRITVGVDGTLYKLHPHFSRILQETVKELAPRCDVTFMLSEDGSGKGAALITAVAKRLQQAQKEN

[7] = molecular target: Polyadenylate-binding protein 1 (Homo sapiens, UniProt P11940); experiment: PABP inhibition in translation initiation, SAR follow-up (AID 435018); type: functional
HeLa = experiment: viability loss in HeLa cells – cell-based, 24 h, cherry-picked samples, cytotoxicity control, dose response (AID 504726); type: functional; conditions: Homo sapiens;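 also: potency for cytotoxicity as loss of luminescence signal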
[8] = A Cell Based Secondary Assay To Explore Cytotoxicity of Compounds that Sensitize Mycobacterium Tuberculosis to Beta-Lactam Antibiotics.; type: functional
[9] = molecular target: T2, Heat shock factor protein 1 (Mus musculus, UniProt P38532); experiment: enhancement of HSF1-driven luciferase signal – cell-based, NIH3T3, luminescence, dose retest, confirmation (AID 435004); type: functional;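 also: stress induced by proteasome inhibitor MG132 added 30 min after compound; luciferase reporter driven by HSF1 response element in NIH3T3 cells; actives raise luminescence as potentiators of the MG132 stress response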
T2 sequence (P38532 whole entry): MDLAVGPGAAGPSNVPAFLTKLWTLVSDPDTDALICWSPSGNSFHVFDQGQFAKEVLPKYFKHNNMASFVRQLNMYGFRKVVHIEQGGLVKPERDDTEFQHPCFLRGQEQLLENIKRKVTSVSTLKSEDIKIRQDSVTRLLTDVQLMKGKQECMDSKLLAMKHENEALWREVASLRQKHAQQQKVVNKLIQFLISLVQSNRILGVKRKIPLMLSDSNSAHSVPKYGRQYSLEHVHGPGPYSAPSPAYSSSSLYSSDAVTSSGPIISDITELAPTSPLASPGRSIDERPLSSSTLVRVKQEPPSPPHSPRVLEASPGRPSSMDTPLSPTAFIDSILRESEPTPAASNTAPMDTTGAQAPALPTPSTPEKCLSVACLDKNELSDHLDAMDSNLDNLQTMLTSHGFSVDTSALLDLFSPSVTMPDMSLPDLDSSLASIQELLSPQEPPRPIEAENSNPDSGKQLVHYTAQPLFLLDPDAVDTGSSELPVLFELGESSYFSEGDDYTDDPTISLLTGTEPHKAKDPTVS

[10] = molecular target: T3, Mannose-6-phosphate isomerase (Homo sapiens, UniProt P34949); experiment: MPI enzyme activity inhibition – biochemical, fluorescence intensity, coupled assay, primary screen (AID 1209)
T3 sequence (P34949 whole entry): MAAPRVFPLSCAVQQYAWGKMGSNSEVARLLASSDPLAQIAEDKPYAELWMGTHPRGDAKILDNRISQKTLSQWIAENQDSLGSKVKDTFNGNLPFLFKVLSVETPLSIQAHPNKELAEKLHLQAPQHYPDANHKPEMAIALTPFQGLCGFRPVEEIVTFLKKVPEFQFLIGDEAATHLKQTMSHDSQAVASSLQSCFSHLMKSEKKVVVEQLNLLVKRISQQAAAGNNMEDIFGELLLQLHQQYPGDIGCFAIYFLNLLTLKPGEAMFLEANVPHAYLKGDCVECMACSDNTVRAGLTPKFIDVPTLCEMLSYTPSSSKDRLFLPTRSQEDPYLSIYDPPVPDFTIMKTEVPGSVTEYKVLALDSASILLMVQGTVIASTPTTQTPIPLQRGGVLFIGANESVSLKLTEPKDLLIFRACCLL

[11] = molecular target: T4, Voltage-gated N-type calcium channel alpha-1B subunit/Amyloid beta A4 precursor protein-binding family A member 1 (Homo sapiens, UniProt Q00975+Q02410); type: protein assay
[12] = molecular target: T4, Voltage-gated N-type calcium channel alpha-1B subunit/Amyloid beta A4 precursor protein-binding family A member 1; type: protein assay; remark: listed apart in the source
[13] = molecular target: T4, Voltage-gated N-type calcium channel alpha-1B subunit/Amyloid beta A4 precursor protein-binding family A member 1; experiment: disruptors of Mint-PDZ/N-type channel peptide interaction – biochemical, HTRF, SAR follow-up (AID 2489); type: functional
[14] = molecular target: Glutathione-S-transferase (Schistosoma japonicum, UniProt Q26513); experiment: GST-antibody interaction or FRET quenching – biochemical, TR-FRET, artefact control for Vif-APOBEC3G degradation inhibitor project, dose response (AID 1117362); type: functional
Estrogen receptor beta = Estrogen receptor beta (Homo sapiens, UniProt Q92731); experiment: blockers of SRC-3 recruitment to ERβ – biochemical, ELISA, streptavidin-HRP readout, orthogonal assay, confirmation (AID 1060)
Sequence of Estrogen receptor beta (Q92731 whole entry): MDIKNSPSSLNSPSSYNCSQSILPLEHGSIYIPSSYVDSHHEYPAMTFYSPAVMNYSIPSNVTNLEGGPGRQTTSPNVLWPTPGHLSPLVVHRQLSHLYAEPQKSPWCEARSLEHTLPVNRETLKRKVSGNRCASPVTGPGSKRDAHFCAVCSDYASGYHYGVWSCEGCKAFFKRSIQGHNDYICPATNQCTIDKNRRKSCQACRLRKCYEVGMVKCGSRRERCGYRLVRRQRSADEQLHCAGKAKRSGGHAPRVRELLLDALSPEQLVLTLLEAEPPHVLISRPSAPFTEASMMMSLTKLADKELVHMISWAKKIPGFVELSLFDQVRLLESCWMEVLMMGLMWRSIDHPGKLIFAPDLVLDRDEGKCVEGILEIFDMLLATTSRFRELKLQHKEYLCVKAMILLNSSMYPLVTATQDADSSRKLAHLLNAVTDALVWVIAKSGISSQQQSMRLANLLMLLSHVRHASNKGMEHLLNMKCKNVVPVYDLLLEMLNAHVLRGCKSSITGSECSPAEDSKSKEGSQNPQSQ

T4 sequence (Q00975 whole entry): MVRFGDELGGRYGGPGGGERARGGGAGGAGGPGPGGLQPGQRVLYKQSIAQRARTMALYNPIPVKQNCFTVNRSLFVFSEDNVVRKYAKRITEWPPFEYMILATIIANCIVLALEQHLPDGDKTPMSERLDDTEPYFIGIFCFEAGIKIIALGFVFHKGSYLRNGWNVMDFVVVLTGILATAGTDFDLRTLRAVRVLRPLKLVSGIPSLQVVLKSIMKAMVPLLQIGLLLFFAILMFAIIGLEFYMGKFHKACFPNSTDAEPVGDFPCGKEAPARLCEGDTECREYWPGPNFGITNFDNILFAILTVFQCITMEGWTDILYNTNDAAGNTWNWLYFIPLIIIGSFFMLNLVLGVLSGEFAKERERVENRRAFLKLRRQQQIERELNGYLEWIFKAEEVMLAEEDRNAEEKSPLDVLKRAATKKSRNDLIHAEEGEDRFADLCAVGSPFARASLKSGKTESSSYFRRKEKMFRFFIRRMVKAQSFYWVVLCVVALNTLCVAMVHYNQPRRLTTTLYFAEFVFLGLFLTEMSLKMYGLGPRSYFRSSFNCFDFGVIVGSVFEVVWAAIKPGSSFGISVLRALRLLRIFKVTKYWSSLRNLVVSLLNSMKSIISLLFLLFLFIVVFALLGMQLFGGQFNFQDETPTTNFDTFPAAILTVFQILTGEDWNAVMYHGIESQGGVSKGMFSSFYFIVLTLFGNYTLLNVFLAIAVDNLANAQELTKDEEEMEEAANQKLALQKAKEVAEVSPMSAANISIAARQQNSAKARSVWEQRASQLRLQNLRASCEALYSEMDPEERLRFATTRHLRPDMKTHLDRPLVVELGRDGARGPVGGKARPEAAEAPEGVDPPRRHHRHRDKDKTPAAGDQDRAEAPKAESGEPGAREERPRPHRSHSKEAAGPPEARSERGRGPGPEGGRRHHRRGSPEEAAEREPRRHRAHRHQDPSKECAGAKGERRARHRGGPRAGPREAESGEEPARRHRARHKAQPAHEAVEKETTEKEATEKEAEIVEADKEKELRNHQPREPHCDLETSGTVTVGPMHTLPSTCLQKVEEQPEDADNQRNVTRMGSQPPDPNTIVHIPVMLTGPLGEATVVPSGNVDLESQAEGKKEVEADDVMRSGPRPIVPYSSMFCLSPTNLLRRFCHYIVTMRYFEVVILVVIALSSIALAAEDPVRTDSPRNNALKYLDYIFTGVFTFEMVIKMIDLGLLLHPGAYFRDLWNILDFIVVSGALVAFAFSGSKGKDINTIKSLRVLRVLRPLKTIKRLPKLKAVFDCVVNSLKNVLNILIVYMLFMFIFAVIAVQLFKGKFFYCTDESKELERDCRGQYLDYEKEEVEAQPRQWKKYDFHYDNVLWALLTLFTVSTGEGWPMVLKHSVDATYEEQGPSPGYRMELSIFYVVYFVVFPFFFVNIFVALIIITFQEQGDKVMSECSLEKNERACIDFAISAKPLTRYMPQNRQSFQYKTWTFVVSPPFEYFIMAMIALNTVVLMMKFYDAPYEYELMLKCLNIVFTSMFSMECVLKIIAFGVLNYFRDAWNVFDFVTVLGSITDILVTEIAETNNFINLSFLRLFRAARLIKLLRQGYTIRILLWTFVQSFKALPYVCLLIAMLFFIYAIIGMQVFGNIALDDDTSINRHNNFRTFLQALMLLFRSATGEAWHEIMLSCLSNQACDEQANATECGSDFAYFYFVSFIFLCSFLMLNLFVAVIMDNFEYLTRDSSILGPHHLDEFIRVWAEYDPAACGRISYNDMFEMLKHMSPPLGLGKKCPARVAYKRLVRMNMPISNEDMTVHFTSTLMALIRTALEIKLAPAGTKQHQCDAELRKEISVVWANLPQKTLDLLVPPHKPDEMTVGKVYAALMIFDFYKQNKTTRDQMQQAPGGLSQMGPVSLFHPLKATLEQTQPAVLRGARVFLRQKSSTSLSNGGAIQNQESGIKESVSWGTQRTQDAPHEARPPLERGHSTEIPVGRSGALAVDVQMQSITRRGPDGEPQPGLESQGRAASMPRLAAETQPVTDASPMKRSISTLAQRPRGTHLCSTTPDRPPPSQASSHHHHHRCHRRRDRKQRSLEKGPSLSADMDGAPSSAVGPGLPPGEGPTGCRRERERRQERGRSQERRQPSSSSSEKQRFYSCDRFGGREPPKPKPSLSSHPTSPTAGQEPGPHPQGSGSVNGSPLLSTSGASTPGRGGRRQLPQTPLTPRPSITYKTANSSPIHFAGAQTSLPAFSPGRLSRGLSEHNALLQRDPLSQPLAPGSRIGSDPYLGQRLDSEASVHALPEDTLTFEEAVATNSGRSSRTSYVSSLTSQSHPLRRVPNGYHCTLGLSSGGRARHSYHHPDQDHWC
T4 sequence (Q02410 whole entry): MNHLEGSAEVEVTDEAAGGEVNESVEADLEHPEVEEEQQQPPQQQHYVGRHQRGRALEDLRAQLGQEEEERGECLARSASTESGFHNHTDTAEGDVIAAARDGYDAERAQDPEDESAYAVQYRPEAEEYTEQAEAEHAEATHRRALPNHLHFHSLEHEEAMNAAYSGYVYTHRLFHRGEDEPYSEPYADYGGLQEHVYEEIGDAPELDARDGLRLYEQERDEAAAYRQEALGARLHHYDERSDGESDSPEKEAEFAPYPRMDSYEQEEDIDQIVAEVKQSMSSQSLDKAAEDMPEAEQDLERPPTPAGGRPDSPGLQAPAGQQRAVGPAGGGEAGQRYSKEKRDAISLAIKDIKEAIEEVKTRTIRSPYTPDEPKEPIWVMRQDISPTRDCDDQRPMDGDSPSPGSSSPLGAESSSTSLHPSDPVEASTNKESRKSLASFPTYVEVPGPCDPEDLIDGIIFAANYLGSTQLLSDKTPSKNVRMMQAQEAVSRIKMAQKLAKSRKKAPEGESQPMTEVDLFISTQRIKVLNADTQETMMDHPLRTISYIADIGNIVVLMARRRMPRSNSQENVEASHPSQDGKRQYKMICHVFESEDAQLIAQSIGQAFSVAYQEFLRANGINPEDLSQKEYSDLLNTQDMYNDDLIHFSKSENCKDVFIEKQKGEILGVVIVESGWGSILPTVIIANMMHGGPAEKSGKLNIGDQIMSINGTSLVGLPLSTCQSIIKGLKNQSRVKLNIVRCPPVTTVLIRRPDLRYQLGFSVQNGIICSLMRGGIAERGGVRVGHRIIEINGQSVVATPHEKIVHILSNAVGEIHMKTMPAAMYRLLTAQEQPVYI
Sequence of Polyadenylate-binding protein 1 (P11940 whole entry): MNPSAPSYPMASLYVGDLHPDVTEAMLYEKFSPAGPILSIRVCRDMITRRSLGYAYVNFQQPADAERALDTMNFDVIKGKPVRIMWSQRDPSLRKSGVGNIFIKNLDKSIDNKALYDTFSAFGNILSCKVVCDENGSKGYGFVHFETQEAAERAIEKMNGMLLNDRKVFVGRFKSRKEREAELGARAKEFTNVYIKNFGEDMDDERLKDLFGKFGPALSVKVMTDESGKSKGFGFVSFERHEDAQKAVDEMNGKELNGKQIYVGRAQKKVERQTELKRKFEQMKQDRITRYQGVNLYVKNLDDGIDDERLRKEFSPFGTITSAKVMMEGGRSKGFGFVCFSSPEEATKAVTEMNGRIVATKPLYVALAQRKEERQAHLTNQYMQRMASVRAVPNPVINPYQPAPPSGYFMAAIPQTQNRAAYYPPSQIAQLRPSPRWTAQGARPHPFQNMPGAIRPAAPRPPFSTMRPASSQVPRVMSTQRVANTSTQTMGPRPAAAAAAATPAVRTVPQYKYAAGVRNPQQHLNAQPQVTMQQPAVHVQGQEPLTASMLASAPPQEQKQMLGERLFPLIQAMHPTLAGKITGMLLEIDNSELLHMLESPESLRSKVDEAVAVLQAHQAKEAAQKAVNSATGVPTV
Sequence of Glutathione-S-transferase (Q26513 whole entry): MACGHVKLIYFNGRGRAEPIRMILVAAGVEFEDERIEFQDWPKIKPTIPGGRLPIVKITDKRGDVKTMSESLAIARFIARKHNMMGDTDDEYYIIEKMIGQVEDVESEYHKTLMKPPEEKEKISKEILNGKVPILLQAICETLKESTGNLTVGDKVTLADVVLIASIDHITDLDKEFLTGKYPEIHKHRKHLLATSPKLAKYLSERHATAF

C=CCn1c(SCc2ccc(Cl)cc2)nc2c1c(=O)[nH]c(=O)n2C
EC50 [1]: > 12 µM (not active)
EC50 [2]: 29.3 µM (active)
EC50 [3]: < 0.1 µM (active)
EC50 [4]: > 12 µM (not active)
EC50 (cells): > 12 µM (not active)
EC50 [5]: > 120 µM (not active)

COc1ccc(NC(=O)CSc2ccc(-c3ccco3)nn2)c(OC)c1
IC50 [6]: 86.5 µM (active)
IC50 (Hexokinase HKDC1): 5.8 µM (active)
IC50 [7]: > 100 µM (inactive)

Cc1cc(C)n2nc(C(=O)OC(C)C(=O)c3cc(C)c(C)cc3C)nc2n1 (stereo not given)
AC50 (HeLa): > 350 µM (inactive)

CCOC(=O)c1c(C)n(-c2ccccc2)c2ccc(OCCN(C)C)cc12
CC50 [8]: > 40 µM (active)

Cc1ccc2cccnc2c1NC(=S)NC(=O)c1ccccc1
EC50 [9]: > 260 µM (inactive)
IC50 [10]: > 50 µM (not active)

O=C(c1ccc2nc(-c3ccco3)c(-c3ccco3)nc2c1)N1CCC2(CC1)OCCO2
IC50 [11]: 1.39 µM (active)
IC50 [12]: 2.45 µM (active)
IC50 [13]: > 56.8 µM (inactive)
IC50 [14]: > 100 µM (active)
IC50 (Estrogen receptor beta): 8.97 µM (not active)

Cc1ccc(NC(=O)C2CCCN2C(=O)Oc2ccccc2)cc1 (stereo not given)
IC50 [6]: > 100 µM (inactive)
IC50 [7]: > 100 µM (inactive)
